{"source": "patent US20250034211A1", "about": "“C-TERMINAL EXTENDED P53 ACTIVATOR CROSSLINKED PEPTIDOMIMETIC MACROCYCLES AGAINST MDM2/MDMX” (Merck Sharp & Dohme LLC, priority 2021, published 2025)", "key": {"HCT116 cells": {"tested_on": "HCT116 cells", "experiment": "Lactate dehydrogenase release assay (LDH)", "format": "cell-based", "protocol": "HCT116 cells were seeded into a 384-well plate at a density of 8000 cells per well. Cells were maintained in McCoy's 5A Medium with 10% fetal bovine serum (FBS), Blasticidin and Penicillin/Streptomycin. The cells were incubated overnight followed by the removal of cell media and the addition of Opti-MEM Medium without FBS. Cells were then treated with peptides for 4/16 hours in Opti-MEM either in 10% FBS or serum free. Final concentration of DMSO was 0.5%. Lactate dehydrogenase release was detected using CytoTox-ONE Homogenous Membrane Integrity Assay Kit (Promega) as per manufacturer's instructions. Measurements were carried out using Tecan plate reader. Maximum LDH release was defined as the amount of LDH released induced by the lytic peptide (iDNA79) and used to normalize the results."}, "[1]": {"experiment": "Circular dichroism (CD) helicity", "format": "physicochemical", "protocol": "The dried peptide was reconstituted in a buffer containing 1 mM HEPES pH 7.4 and 5% methanol to a concentration of 1 mM. The peptide sample was placed in a quartz cuvette with a path length of 0.2 cm and a CD spectrum was recorded from 300 to 190 nm at 25° C. using the Chirascan-plus qCD machine (Applied Photophysics). The actual concentration of the peptide was determined by the absorbance of the peptide at […]. An estimate of the secondary structure components of the peptide was carried out by converting the CD spectrum to mean residue ellipticity before deconvoluting using the CDNN software (distributed by Applied Photophysics). All experiments were done in duplicate."}, "[2]": {"biological_target": "T1, MDM2 (1-125; SEQ ID NO 14) (Homo sapiens, UniProt Q00987)", "T1 construct": "GST (N); His6 (internal); TEV cleavage site ENLYFQG (internal); made in house; host or cells: E. coli BL21 (DE3) Rosetta T1R", "T1 sequence (Q00987 with tags, fused parts or gaps)": "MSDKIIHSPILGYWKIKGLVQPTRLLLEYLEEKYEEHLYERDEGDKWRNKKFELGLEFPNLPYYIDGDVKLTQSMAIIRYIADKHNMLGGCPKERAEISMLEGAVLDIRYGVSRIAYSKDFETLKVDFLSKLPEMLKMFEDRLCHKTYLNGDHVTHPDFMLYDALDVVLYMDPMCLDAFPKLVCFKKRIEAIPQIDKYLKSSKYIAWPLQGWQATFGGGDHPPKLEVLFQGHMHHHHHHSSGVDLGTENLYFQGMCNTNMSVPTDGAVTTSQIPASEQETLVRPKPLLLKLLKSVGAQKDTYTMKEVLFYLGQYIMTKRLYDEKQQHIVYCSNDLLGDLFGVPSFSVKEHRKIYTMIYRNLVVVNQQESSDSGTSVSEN", "experiment": "MDM2 binding assay (fluorescence anisotropy competition, FP)", "protocol": "[P] is the protein concentration (MDM2), [L] is the labeled peptide concentration, r is the anisotropy measured, r0 is the anisotropy of the free peptide, rb is the anisotropy of the MDM2-FAM-labeled peptide complex, Kd is the dissociation constant, [L]t is the total FAM labeled peptide concentration, and [P]t is the total MDM2 concentration. […] The competing molecules were then titrated against the complex of the FAM-labeled peptide and protein. Apparent Kd values were determined by fitting the experimental data to the equations shown below:\n[L]st and [L]t denote labeled ligand and total unlabeled ligand input concentrations, respectively. Kd2 is the dissociation constant of the interaction between the unlabeled ligand and the protein. In all competition experiments, it is assumed that [P]t>[L]st, otherwise considerable amounts of free labeled ligand would always be present and would interfere with measurements. […] The FAM-labeled peptide was dissolved in dimethyl sulfoxide (DMSO) at 1 mM and diluted into experimental buffer. Readings were carried out with an Envision Multilabel Reader (PerkinElmer). […] All titrations were carried out in triplicate. Curve-fitting was carried out using Prism 4.0 (GraphPad). […] Negative control titrations of the ligands under investigation were also carried out with the fluorescently labeled peptide (in the absence of MDM2) to ensure no interactions were occurring between the ligands and the FAM-labeled peptide."}, "p53 null Ca Ski": {"tested_on": "p53 null Ca Ski", "conditions": "72 h, 10% serum"}, "Solubility (PBS, pH 7)": {"experiment": "Solubility (PBS, pH 7)", "conditions": "PBS, pH 7"}, "[3]": {"tested_on": "Jump-In T-REx CHO-K1 BLA cells", "experiment": "Tetracycline beta-lactamase reporter gene assay (counter screen)", "format": "cell-based", "protocol": "Based on Jump-In™ T-REx™ CHO-K1 BLA cells and contain a stably integrated β-lactamase under the control of an inducible CMV promoter. Cells were seeded into a 384-well plate a density of 4000 cells per well. Cells were maintained in Dulbecco's Minimal Eagle Medium (DMEM) with 10% fetal bovine serum (FBS), Blasticidin and Penicillin/Streptomycin. The cells were incubated for 24 hours, followed by cell media removal and replacement with Opti-MEM either containing 10% FBS or 0% FBS. Peptides were then dispensed to each well using a liquid handler, ECHO 555 and incubated for 4/16 hours. Final working concentration of DMSO was 0.5%. β-Lactamase activity was detected using the ToxBLAzer Dual Screen (Invitrogen) as per manufacturer's instructions. Measurements were carried out using Envision multiplate reader (Perkin Elmer). Counter Screen activity was defined as the amount of 0-lactamase activity induced by tetracycline."}}, "note": "Where a SMILES comes first, the peptide text is derived from it. Bridges are numbered along the chain shown (N, C = ends). [ ]: non-standard residue; d: D form. Lys(N3) = [N-]=[N+]=NCCCC[C@H](N)C(=O)O; R8 = C=CCCCCCC[C@@](C)(N)C(=O)O; Cba = N[C@@H](CC1CCC1)C(=O)O; S5 = C=CCCC[C@](C)(N)C(=O)O; βAla = NCCC(=O)O"}
{"smiles": "CC(=O)N[C@@H](CCCCN=[N+]=[N-])C(=O)NCCC(=O)N[C@@H](CC(C)C)C(=O)N[C@H](C(=O)N[C@@H](Cc1ccccc1)C(=O)N[C@]1(C)CCCCCCC=CCCC[C@@](C)(C(=O)N[C@@H](C)C(=O)N[C@@H](C)C(=O)N[C@@H](C)C(=O)N[C@@H](C)C(=O)N[C@@H](C)C(=O)N[C@H](C)C(N)=O)NC(=O)[C@H](CC2CCC2)NC(=O)[C@H](CCC(N)=O)NC(=O)[C@H](C)NC(=O)[C@H](Cc2c[nH]c3ccccc23)NC(=O)[C@H](Cc2ccc(O)cc2)NC(=O)[C@H](CCC(=O)O)NC1=O)[C@@H](C)O", "note": "[Macrocycle 3, Ac-K(N3)-betaAla-L-T-F-X1a-E-Y-W-A-Q-Cba-X2a-AAAAA-(D-Ala)-NH2(olefinstaple from X1ato X2a)] (Ac-[Lys(N3)][βAla]LTF[R8]EYWAQ[Cba][S5]AAAAA[dA]-NH2; staple 6-13)", "values": [{"measurement": "EC50", "setting": "HCT116 cells; 0% FBS, 4 h", "result": "> 50", "unit": "µM"}, {"measurement": "EC50", "setting": "HCT116 cells; 10% FBS, 16 h", "result": "> 50", "unit": "µM"}, {"measurement": "HCT116 proliferation % Max", "setting": "HCT116; 72 h, 10% serum", "result": 71, "unit": "%"}, {"measurement": "EC50", "setting": "HCT116; read-out: cellular efficacy in cell proliferation HTC116 p53 positive control cell lines", "result": 0.42, "unit": "µM"}, {"measurement": "CD (% helicity)", "setting": "[1]", "result": 47, "unit": "%"}, {"measurement": "Kd", "setting": "[2]", "result": 0.031, "unit": "µM"}, {"measurement": "logD", "setting": "HPLC LogD", "result": 3.15}, {"measurement": "p53 null Ca Ski proliferation % Max", "setting": "p53 null Ca Ski", "result": 10, "unit": "%"}, {"measurement": "solubility", "setting": "Solubility (PBS, pH 7)", "result": 157, "unit": "µM"}, {"measurement": "EC50", "setting": "[3]; 0% FBS, 4 h", "result": "> 50", "unit": "µM"}, {"measurement": "EC50", "setting": "[3]; 10% FBS, 16 h", "result": "> 50", "unit": "µM"}]}
